The values that follow come from patent publication US20230293475A1, “METHODS OF PROVIDING SO[…] TO SUBJECTS WITH IMPAIRED RENAL FUNCTION” (Axsome Malta Ltd., priority 2020, published 2023).

A short description of this data set: Phase 1 study, removal of solriamfetol by 4-hour hemodialysis in ESRD. It is filed as in vivo, human. As to the method: Groups 1-4 received one dose of solriamfetol HCl (89.3 mg; equivalent to 75-mg solriamfetol) on day 1; Group 5 received one dose equivalent to 75-mg dose on day 1 followed by 4-hour hemodialysis (designated Group 5.2), and one dose equivalent to 75-mg solriamfetol on day 8 without hemodialysis (designated Group 5.1). All doses were administered on an empty stomach following an overnight fast except for participants in Group 5, who received a standardized snack on day 7 and breakfast early on day 8 before starting an 8-hour fast. Participants remained fasting for 4 hours after administration, with water allowed except for 1 hour before and after dosing.
Urine samples were collected predose and for the time intervals of 0-4, 4-8, 8-12, 12-24, and 24-48 hours in Groups 1-3, with additional collection for the 48-72 hour time interval in Groups 4 and 5. During the hemodialysis period on day 1 for Group 5, dialysate samples and pre- and post-dialyzer paired blood samples were collected at pre-dialysis (2 hours), and at 3, 4, 5, and 6 hours following dosing. […]
Bioanalytical analyses were performed by a central laboratory (KCAS, LLC, Shawnee, Kansas) using validated proprietary methods that included extraction/derivatization and liquid chromatography-tandem mass spectrometry (LC-MS/MS). […] Assay performance was monitored by spiking blank interference free human plasma with positive controls and internal standards to generate standard curve and quality control samples. […] Quantification was based on setting a calibration graph using the internal standard method. […]
The following plasma PK parameters were evaluated using non-compartmental analysis in Phoenix® WinNonlin® Version 6.3: Cmax; time to reach Cmax following drug administration (tmax); t½; area under the plasma concentration-time curve from time zero to time of last quantifiable concentration (AUCt); AUC from time zero to infinity (AUC∞); apparent total clearance of the drug from plasma after oral administration (CL/F); and apparent volume of distribution (Vd/F). […]

For the molecule `NC(=O)OC[C@H](N)Cc1ccccc1` [solriamfetol, [R]-2-amino-3-phenylpropylcarbamate], the “hemodialysis clearance, lower than renal clearance in normal renal function” value is “approximately 30%”. Where the note is “both sexes, human, dialysate, oral, 75 mg, day 1”, this molecule had a clearance of 207 mL/min. In addition, the “cumulative fraction of the 75-mg dose removed over the 4-hour hemodialysis period, mean” value (day 1) worked out at 20.6%.
